From US20210220370A1, “SELECTIVE HDAC8 INHIBITORS AND THEIR USES” (HOCHSCHULE DARMSTADT, priority 2015, published 2021)

Legend:
[1] = biological target: T1, HDAC7 (Homo sapiens, UniProt Q8WUI4); assay: HDAC7 colorimetric assay, substrate Boc-Lys(TFA)-AMC; settings: IC50 HDAC7, Table 1
T1 sequence (Q8WUI4 1-952): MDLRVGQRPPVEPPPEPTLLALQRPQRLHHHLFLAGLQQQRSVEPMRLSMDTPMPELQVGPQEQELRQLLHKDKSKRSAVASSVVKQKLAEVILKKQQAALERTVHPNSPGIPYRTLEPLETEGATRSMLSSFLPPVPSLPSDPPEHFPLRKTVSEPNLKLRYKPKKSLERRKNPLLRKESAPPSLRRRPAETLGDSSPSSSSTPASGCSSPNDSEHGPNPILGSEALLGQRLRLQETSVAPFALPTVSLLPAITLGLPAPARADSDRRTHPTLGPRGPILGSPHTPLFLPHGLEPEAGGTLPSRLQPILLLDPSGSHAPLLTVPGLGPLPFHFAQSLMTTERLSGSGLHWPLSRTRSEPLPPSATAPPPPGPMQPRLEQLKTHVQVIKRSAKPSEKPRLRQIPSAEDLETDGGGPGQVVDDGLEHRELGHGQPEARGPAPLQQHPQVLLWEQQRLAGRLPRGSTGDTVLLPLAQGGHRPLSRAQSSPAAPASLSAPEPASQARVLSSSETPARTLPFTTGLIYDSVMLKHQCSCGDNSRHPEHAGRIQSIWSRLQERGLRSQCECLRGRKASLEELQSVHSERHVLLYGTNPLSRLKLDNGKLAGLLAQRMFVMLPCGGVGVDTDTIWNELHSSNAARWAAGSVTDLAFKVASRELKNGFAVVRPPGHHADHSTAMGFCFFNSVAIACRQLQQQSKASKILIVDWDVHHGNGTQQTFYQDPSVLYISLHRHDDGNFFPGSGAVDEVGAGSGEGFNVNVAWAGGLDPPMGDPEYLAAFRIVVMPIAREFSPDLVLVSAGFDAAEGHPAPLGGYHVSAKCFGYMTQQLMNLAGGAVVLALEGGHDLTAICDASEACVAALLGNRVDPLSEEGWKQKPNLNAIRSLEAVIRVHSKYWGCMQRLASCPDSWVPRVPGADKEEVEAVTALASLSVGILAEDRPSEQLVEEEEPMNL

[2] = biological target: HDAC3 (Homo sapiens, UniProt O15379); assay: HDAC3 colorimetric assay, substrate Boc-Lys(Ac)-AMC; assay type: biochemical; settings: Table 1
[3] = biological target: T2, HDAC6 (Homo sapiens, UniProt Q9UBN7); assay: HDAC6 colorimetric assay, substrate Boc-Lys(Ac)-AMC; assay type: biochemical; settings: Table 1; read-out: IC50 HDAC6
T2 sequence (Q9UBN7 1-1215): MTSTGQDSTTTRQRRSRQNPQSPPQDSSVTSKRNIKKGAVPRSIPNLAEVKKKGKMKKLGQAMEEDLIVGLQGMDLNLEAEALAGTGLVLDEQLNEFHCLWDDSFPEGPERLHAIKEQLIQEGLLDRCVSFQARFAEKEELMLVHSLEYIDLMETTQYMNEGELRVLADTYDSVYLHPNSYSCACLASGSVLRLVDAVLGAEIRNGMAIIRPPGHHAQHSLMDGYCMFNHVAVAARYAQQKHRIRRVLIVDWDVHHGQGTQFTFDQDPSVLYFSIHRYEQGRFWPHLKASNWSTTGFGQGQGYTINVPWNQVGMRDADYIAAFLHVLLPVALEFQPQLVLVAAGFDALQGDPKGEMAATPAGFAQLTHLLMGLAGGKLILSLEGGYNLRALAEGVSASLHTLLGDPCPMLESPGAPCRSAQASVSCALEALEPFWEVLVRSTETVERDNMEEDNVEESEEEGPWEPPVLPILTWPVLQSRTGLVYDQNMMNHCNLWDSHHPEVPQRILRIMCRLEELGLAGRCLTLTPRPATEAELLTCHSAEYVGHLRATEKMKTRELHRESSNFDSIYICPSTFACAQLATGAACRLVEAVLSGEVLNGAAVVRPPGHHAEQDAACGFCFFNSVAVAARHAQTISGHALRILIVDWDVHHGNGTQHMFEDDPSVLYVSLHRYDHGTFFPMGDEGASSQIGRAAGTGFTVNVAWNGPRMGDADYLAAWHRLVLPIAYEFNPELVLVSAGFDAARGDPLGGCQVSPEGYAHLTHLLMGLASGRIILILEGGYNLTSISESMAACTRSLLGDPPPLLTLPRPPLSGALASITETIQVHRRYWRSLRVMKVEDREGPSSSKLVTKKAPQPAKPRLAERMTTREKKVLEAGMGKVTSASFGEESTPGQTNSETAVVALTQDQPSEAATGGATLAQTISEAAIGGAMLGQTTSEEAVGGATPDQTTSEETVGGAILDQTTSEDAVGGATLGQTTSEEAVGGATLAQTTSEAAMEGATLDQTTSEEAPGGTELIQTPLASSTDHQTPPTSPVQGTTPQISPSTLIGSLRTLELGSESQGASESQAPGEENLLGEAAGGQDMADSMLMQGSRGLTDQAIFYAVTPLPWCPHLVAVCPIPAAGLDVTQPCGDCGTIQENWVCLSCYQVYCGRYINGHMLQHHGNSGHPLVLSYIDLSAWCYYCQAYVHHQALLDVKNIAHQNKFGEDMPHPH

[4] = biological target: HDAC5 (Homo sapiens, UniProt Q9UQL6); assay: HDAC5 colorimetric assay, substrate Boc-Lys(TFA)-AMC
[5] = biological target: HDAC1 (Homo sapiens, UniProt Q13547); assay: HDAC1 colorimetric assay, substrate Boc-Lys(Ac)-AMC; settings: IC50 HDAC1, Table 1
Description: 1 nM of HDAC1 was incubated with increasing concentrations of the respective compound for 30 minutes at 30° C. The reaction was initiated by addition of 50 μM of the substrate Boc-Lys(Ac)-AMC. After an incubation of 60 minutes the reaction was stopped by addition of 20 μM SAHA and the deacetylated substrate was converted into a fluorescent product by the addition of trypsin.

[6] = test system: breast cancer cell line MCF-7; assay: Growth inhibition of cancer cell line, resazurin assay; assay type: cell-based, Human; settings: Homo sapiens, MCF7; Table 2, resazurin assay
[7] = biological target: HDAC4 (Homo sapiens, UniProt P56524); assay type: biochemical; settings: Table 1
[8] = biological target: T3, HDAC8 (Homo sapiens, UniProt Q9BY41); assay: HDAC8 colorimetric assay, substrate Boc-Lys(TFA)-AMC; settings: IC50 HDAC8, Table 1
T3 sequence (Q9BY41 1-377): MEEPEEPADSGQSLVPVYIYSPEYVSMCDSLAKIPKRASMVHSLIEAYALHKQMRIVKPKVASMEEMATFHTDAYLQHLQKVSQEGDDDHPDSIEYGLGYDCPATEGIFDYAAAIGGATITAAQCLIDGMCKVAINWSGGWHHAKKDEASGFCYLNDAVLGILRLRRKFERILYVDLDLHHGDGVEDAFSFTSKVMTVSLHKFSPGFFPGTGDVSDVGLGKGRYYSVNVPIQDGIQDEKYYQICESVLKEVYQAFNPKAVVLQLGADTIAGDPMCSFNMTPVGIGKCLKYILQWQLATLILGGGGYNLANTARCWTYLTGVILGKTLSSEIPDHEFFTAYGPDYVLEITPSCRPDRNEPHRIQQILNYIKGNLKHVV
Description: 1 nM of HDAC4 was incubated with increasing concentrations of the respective compound for 30 minutes at 30° C. The reaction was initiated by addition of 20 μM of the substrate Boc-Lys(trifluoracetyl)-AMC. After an incubation of 60 minutes the reaction was stopped by addition of 20 μM SAHA and the deacetylated substrate was converted into a fluorescent product by the addition of trypsin.

[9] = test system: T cell leukemia cell line JURKAT; assay: Growth inhibition of cancer cell line, resazurin assay; settings: Homo sapiens, Jurkat, read-out: GI50 JURKAT
[10] = test system: uterine leiomyosarcoma cell line SKUT-1; assay: as above; assay type: cell-based, Human; settings: Homo sapiens, SK-UT-1; Table 2, resazurin assay
[11] = biological target: HDAC2 (Homo sapiens, UniProt Q92769); assay: HDAC2 colorimetric assay, substrate Boc-Lys(Ac)-AMC; assay type: biochemical; settings: Table 1
Chain of HDAC2 (Q92769 whole entry): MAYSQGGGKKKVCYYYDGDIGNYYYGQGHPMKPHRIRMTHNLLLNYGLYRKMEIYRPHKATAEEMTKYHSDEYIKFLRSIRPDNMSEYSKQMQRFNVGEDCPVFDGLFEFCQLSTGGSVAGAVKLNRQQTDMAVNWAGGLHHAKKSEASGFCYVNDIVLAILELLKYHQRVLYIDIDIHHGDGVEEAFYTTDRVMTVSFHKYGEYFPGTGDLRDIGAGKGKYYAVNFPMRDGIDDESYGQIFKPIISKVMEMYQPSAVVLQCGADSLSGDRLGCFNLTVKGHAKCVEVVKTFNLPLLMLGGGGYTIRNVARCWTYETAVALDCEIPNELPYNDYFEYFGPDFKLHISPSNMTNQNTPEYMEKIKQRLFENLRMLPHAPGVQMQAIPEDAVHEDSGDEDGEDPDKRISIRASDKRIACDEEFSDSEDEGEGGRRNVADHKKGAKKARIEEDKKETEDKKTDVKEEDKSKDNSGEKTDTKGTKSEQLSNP

Chain of HDAC3 (O15379 whole entry): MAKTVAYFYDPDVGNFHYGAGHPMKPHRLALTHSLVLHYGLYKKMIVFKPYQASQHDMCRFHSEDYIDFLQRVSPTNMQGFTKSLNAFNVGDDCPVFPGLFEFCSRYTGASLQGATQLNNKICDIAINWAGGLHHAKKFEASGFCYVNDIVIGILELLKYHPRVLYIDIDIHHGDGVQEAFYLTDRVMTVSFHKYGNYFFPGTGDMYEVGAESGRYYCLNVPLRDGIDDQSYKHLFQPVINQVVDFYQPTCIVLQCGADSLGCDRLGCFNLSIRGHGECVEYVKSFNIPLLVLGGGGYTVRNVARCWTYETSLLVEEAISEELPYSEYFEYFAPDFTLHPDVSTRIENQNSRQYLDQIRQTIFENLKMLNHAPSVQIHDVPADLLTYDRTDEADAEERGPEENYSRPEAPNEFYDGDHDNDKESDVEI
Chain of HDAC3 (Q9Y618 395-489 partner limits assumed): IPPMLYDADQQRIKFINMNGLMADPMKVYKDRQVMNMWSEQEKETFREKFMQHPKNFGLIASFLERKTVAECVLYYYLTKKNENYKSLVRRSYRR
Chain of HDAC5 (Q9UQL6 whole entry): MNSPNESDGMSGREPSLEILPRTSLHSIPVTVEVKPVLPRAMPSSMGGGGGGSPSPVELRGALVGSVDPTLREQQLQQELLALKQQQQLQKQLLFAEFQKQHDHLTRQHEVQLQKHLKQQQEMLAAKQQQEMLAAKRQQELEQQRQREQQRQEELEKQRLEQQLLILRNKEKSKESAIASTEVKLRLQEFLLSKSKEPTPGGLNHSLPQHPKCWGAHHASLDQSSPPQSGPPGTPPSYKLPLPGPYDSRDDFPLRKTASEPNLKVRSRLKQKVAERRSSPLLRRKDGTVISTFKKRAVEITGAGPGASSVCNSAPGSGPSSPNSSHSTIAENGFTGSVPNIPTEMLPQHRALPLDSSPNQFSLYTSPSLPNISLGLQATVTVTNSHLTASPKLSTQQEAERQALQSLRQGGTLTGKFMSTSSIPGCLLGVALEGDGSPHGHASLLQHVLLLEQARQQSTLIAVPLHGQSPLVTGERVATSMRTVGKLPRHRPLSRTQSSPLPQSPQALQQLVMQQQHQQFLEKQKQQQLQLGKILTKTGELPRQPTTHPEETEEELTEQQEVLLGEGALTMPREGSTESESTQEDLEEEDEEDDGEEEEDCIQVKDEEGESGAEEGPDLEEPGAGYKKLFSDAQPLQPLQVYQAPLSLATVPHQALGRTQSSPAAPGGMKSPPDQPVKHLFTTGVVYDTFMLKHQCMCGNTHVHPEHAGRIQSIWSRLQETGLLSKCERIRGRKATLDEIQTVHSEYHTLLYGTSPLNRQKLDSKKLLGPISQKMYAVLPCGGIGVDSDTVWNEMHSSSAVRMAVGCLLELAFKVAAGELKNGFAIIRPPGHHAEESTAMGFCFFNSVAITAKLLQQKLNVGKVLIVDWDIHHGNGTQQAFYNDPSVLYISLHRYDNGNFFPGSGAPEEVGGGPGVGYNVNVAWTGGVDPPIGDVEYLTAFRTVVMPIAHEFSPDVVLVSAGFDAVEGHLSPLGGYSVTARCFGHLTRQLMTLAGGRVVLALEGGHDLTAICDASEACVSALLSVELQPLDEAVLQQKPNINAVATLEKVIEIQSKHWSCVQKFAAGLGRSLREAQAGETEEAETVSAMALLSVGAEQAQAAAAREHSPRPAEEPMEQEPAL
Chain of HDAC4 (P56524 whole entry): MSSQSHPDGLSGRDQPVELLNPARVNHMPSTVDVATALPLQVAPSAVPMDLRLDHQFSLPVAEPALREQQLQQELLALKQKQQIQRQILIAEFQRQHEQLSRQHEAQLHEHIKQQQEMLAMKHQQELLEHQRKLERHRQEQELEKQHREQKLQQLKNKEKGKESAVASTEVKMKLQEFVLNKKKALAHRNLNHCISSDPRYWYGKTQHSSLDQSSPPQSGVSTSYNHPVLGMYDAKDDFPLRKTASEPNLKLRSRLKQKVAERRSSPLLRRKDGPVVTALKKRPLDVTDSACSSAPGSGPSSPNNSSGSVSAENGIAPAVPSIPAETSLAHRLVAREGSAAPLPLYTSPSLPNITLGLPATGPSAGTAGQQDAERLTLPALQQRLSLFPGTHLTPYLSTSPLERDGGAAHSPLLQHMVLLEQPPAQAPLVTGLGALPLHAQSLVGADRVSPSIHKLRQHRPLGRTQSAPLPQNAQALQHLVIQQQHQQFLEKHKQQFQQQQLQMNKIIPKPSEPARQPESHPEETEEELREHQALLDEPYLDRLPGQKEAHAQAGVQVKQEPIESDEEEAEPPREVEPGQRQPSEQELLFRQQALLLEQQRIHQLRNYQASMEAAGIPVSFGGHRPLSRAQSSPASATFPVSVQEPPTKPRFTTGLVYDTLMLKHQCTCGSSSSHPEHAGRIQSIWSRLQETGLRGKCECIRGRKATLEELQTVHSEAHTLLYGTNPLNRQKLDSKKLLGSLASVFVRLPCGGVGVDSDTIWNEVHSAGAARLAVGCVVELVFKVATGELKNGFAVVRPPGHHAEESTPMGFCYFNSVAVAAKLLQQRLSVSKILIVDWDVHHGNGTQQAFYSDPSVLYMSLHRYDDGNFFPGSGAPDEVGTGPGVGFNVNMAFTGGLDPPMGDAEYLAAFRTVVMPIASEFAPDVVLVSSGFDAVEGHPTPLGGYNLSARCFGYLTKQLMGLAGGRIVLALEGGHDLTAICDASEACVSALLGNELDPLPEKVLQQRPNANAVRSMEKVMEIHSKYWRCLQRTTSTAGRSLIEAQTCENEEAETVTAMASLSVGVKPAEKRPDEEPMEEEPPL
Chain of HDAC1 (Q13547 whole entry): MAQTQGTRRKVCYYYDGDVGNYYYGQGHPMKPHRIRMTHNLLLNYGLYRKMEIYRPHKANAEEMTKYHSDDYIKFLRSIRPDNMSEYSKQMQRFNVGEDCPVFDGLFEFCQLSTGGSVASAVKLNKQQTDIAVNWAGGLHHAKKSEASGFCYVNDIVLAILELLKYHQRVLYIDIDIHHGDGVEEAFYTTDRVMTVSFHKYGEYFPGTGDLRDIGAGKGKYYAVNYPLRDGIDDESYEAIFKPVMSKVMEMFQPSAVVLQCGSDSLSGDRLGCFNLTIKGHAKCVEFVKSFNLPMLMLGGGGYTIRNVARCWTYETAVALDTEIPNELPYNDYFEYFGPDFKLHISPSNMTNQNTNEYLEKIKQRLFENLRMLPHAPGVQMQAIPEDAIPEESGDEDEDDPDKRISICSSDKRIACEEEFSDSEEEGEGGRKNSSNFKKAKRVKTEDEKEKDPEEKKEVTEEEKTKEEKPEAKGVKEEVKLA

Row | IC50 [1] [µM] | IC50 [2] [µM] | IC50 [3] [µM] | IC50 [4] [µM] | IC50 [5] [µM] | GI50 [6] [µM] | IC50 [7] [µM] | IC50 [8] [µM] | GI50 [9] [µM] | GI50 [10] [µM] | IC50 [11] [µM] | Structure (SMILES)
1 | > 50 | > 50 | > 50 | > 50 | > 50 | 16 ± 3 | > 50 | 9.2 ± 0.3 | 24 ± 3 | 109 ± 29 | > 50 | N=C1Sc2c(F)cccc2C2=NCCN12 [Compound 13i, 7-Fluoro-2H-Benzo[e]Imidazo[1,2-c][1,3]Thiazin-5(3H)-Imine]
2 | 2 ± 0.7 | 7 ± 0.5 | 1.4 ± 0.2 | 0.038 ± 0.001 | 2.6 ± 0.3 | 11 ± 3 | 2.3 ± 0.3 | 0.0063 ± 0.0004 | 17 ± 3 | 16 ± 3 | 16 ± 2 | N=C1Sc2cccc(Br)c2C2=NCCCN12 [Compound 13j, 11-Bromo-3,4-Dihydrobenzo[e]Pyrimido[1,2-c][1,3]Thiazin-6(2H)-Imine]
3 | 2.5 ± 0.1 | 26 ± 4 | 1.3 ± 0.3 | 0.24 ± 0.01 | 5.8 ± 0.3 | 44 ± 12 | 7.6 ± 0.8 | 0.0054 ± 0.0004 | 36 ± 4 | 45 ± 16 | > 50 | Cc1ccc2c(c1)SC(=N)N1CCCN=C21 [Compound 13k, 9-Methyl-3,4-Dihydrobenzo[e]Pyrimido[1,2-c][1,3]Thiazin-6(2H)-Imine]
4 | 1.5 ± 0.4 | 5.3 ± 0.4 | 0.65 ± 0.11 | 0.046 ± 0.003 | 2.1 ± 0.2 | 79 ± 11 | 2.2 ± 0.3 | 0.006 ± 0.0006 | 16 ± 2 | 24 ± 5 | 30 ± 2 | N=C1Sc2ccc(F)cc2C2=NCCCN12 [Compound 13l, 10-Fluoro-3,4-Dihydrobenzo[e]Pyrimido[1,2-c][1,3]Thiazin-6(2H)-Imine]
5 | 1.3 ± 0.2 | 9.6 ± 0.7 | 1.3 ± 0.3 | 0.038 ± 0.002 | 3.7 ± 0.4 | 179 ± 66 | 3.2 ± 0.5 | 0.0043 ± 0.0005 | 23 ± 2 | 35 ± 2 | > 50 | Cc1cccc2c1C1=NCCCN1C(=N)S2 [Compound 13m, 11-Methyl-3,4-Dihydrobenzo[e]Pyrimido[1,2-c][1,3]Thiazin-6(2H)-Imine]
